Source: US20050234113A1, “Antioxidant and radical scavenging activity of synthetic analogs of desferrithiocin” (University of Florida Research Foundation, Inc., priority 2002, published 2005)
“Also recorded” adds a separate entry of the source. Marks after values point to notes of the source that are not given here.

How the values were obtained:
[1] = Quenching of the ABTS radical cation
Protocol: The iron chelators were tested for their ability to quench the radical cation formed from 2,2′-azinobis(3-ethylbenzothiazoline-6-sulfonic acid) (ABTS) by the method of Re et al. in Free Radic. Biol. Med. 26, 1231-1237 (1999). Briefly, a stock solution of ABTS radical cation was generated by mixing ABTS (10 mM, 2.10 mL) with K2S2O8 (8.17 mM, 0.90 mL) in H2O and […] deep blue-green ABTS radical cation was diluted in sufficient sodium phosphate (10 mM, pH 7.4) to give an A734 of about 0.900. Test compounds were added to a final concentration ranging from 1.25 to 15 μM, and the decrease in A734 was read after 1, 2, 4 and 6 min. The reaction was largely complete by 1 min, but the data presented are based on a 6-min reaction time.
In this assay, a fairly stable radical cation, ABTS^+, was examined, and Trolox, an analog of vitamin E, was used as a positive control. Briefly, the procedure involved generating the blue-green chromophore by the reaction of ABTS with K2S2O8. The radical has absorption maxima at λ=415, 645, 734, and 815 nm. The change in absorbance at 734 nm was noted 6 min after addition of the chelator of interest at various concentrations, and the slope of the ΔA734 vs. ligand concentration line was calculated.
The iron chelators were tested for their ability to quench the radical cation formed from 2,2′-azinobis(3-ethylbenzothiazoline-6-sulfonic acid) (ABTS) by a published method (Re, R., et al., Free Radical Biol. Med. 26:1231-1237 (1999). Briefly, a stock solution of ABTS radical cation was generated by mixing ABTS (10 mM, 2.10 mL) with K2S2O8 (8.17 mM, 0.90 mL) in H2O and allowing the solution to sit in the dark at room temperature for 18 hours. This stock solution of deep blue-green ABTS radical cation was diluted in sufficient sodium phosphate (10 mM, pH 7.4) to give an A734 of about 0.900. Test compounds were added to a final concentration ranging from 1.25 to 15 μM, and the decrease in A734 was read after 1, 2, 4 and 6 min. The reaction was largely complete by 1 min, but the data presented are based on a 6-min. reaction time.
This radical cation decolorization assay utilizes the pre-formed radical monocation of 2,2′-azinobis(3-ethylbenzothiazoline-6-sulfonic acid) (ABTS) and has been used to evaluate the antioxidant capacity of a large number of compounds and mixtures. Briefly, the change in absorbance of the blue-green chromophore was recorded after the addition of the chelator of interest at each of the different concentrations, and the slope of the ΔA734 vs. ligand concentration line was calculated. The positive control for this reaction was Trolox, an analogue of vitamin E. The decrease in A734 as a function of ligand concentration is the comparitor among the five compounds evaluated. Trolox, L1, DFO, (S)-4′-(HO)-DADMDFT and BDU (Table 3). All four of the iron chelators performed better than Trolox; DFO≈BDU>(S)-4′-(HO)-DADMDFT>L1>Trolox. Thus, all of these ligands could be expected to serve as excellent radical scavengers.

[2] = test system: acetic acid-induced colitis; experiment: Acetic acid-induced colitis in rats, densitometric image analysis of colonic damage; assay type: in vivo
Protocol: (§1) The ligands were administered to the rats intracolonically as a suspension or solution in distilled water (2 mL) at a dose of 650 μmol kg^−1. The drug solutions were made fresh for each experiment. ROWASA®, the pharmaceutical preparation which contains 5-ASA (2 mL, 66.7 mg mL^−1) was given at a dose of 2318 μmol kg^−1. Control rats received distilled water (2 mL), administered intracolonically.
(§2) Animal care and experimental procedures were approved by the Institutional Animal Care and Use Committee. Colitis was induced by a modification of published methods. Briefly, the rats were anesthetized with sodium pentobarbital, 55 mg kg^−1 intraperitoneally. The abdomen was shaved and prepared for surgery. A midline incision was made, and the cecum and proximal colon were exteriorized. A reversible suture was placed at the junction of the cecum and proximal colon. The colon was rinsed with saline (10 mL), and the fluid and intestinal contents were gently expressed out the rectum. A gum-based rectal plug was inserted. The compound of interest, or distilled water in the control animals (2 mL), was injected intracolonically just distal to the ligature. The cecum and proximal colon were returned to the abdominal cavity; the compound was allowed to remain in the gut for 30 min. Then, the cecum and proximal colon were reexteriorized. The rectal plug was removed, and the drug was gently expressed out of the colon. Acetic acid (4%, 2 mL) was injected into the proximal colon over a 15-20-second time period. The acid was allowed to remain in the gut until one minute had passed (i.e., 40-45 seconds after the end of the acid administration). The no acid control rats received distilled water (2 mL), which was administered in the same manner as was the acetic acid. Air (10 mL) was then injected into the proximal colon to expel the acid or water. The cecal/proximal colon ligature was removed, the gut was returned to the abdominal cavity, and the incisions were closed. The animals were allowed to recover overnight and were sacrificed 24 hr later. The entire length of the colon was removed and assessed for damage both densitometrically and biochemically.
Gross damage was quantitated using Photoshop-based image analysis (version 5.0, Adobe Systems, Mountain View, Calif., USA) on an Apple iMac computer. The Magic Wand tool in the Select menu of Photoshop was used to place the cursor on an area of obvious damage. The tolerance level of the Magic Wand tool was set at 30. The damaged areas were automatically selected by using the Similar command in the Select menu. Then, the Eyedropper tool was used to determine the range of the damage in the highlighted areas. Individual colon images were copied to a blank Photoshop page. The Magic Wand tool, with a tolerance set to 100, was used to select all of the pixels in the colon sample. Then, the Histogram tool, which generates a graph in which each vertical line represents the number of pixels associated with a brightness level, was selected in the Image menu. The Red channel was then selected; the darker (damaged areas) appear on the left side of the histogram and the lighter (normal) areas are on the right side. The cursor was then placed on the histogram, the color range determined in an earlier step was selected, and the number of pixels encompassing that range and the percent damage were quantified automatically.
Two means were employed to assess the damage to the colon in the presence and absence of ligand, computer-based image analysis and colonic MPO measurement. The densitometric method removes much of the subjectivity involved in the simple scoring approaches. A digital image of the prepared colonic tissue is taken, and a clearly damaged segment is highlighted on the screen. Once the computer identifies all other segments of the intestine with the same or greater damage, a pixel number is generated; this number makes it possible to calculate the percentage of damaged intestine.

[3] = test system: Myeloperoxidase (MPO) activity in colonic tissue; experiment: Myeloperoxidase (MPO) assay in colonic tissue of rats with acetic acid-induced colitis; assay type: in vivo; conditions: 650 μmol kg^−1 intracolonically 30 min before 4% acetic acid, mean ± standard deviation
Protocol: as §1, §2
The activity of MPO was measured in colonic tissue by a modification of the method of Krawisz et al. in Gastroenterology 87, 1344-1350 (1984). Each excised colon was homogenized in 9 volumes of homogenization buffer (0.5% hexadecyltrimethylammonium bromide (HDTMA) in 50 mM sodium acetate, pH 6.0); this homogenate was centrifuged at 1200 g for 20 min at 4° C. A sample of the supernatant (1.8 mL) was transferred into a microcentrifuge tube and stored frozen at −20° C. for up to one week. Prior to assay, the thawed aliquot was centrifuged at about 10,000 g for 15 minutes at 4° C. The final supernatant (33 μL) was added to a solution of o-dianisidine HCl (0.17 mg mL^−1 in 50 mM sodium acetate, pH 6.0, made fresh daily and filtered immediately before use) (950 μL), the mixture was vortexed, and the peroxidase reaction was initiated by the addition of H2O2 to 50 mM sodium acetate, pH 6.0, made fresh daily (16.7 μL). The A470 at room temperature (ca. 23° C.) was read at 15-second intervals for 2 min. The rates were assessed graphically and are presented as change in milliabsorbance units (ΔmAU)/min per g tissue. Under these conditions, 0.1 “Unit” of purified human leukocyte myeloperoxidase (Sigma M-6908) produced a ΔA470 of about 400 mAU/min.
The biochemical measurement involves measuring the level of MPO in a sample of homogenate of the whole rat colon. When the colon is damaged by the acetic acid, there is an extravasation of neutrophils. The extent of this infiltration can serve as a quantitative marker for tissue damage. Although other leukocytes, such as eosinophils and monocytes, also contribute to the inflammatory response, their contribution is small; the majority of the cells recruited during the acute inflammatory response are neutrophils. […]

[4] = Quenching of the ABTS radical cation; conditions: Table 5; 6-min reaction, initial OD 1.000
iron-loaded hepatocytes = conditions: cited from earlier work
[5] = Prevention of iron-mediated oxidation of ascorbate (ascorbate-mediated reduction of Fe(III)); conditions: ascorbate 100 μM, FeCl3 30 μM, pH 7.4, ligand/Fe ratios 0-3, 40 min
Protocol: (§3) The iron chelators were tested for their ability to diminish the iron-mediated oxidation of ascorbate by the method of Dean and Nicholson (Free Radical Res. 20, 83-101 (1994)). Briefly, a solution of freshly prepared ascorbate (100 μM) in sodium phosphate buffer (5 mM, pH 7.4) was incubated in the presence of FeCl3 (30 μM) and chelator (ligand/Fe ratios varied from 0-3) for 40 min. The A265 was read at 10 and 40 min; the ΔA265 in the presence of ligand was compared to that in its absence.
The role of chelators in either inhibition or promotion of the Fenton reaction is related to their capacity to prevent Fe(III) from being reduced to Fe(II). Fe(II) is required for the reduction of H2O2 to HO. and HO^−. The assay involves spectrophotometrically monitoring the disappearance of ascorbate at pH 7.4 in the presence of FeCl3 and chelator at several ligand/Fe ratios. Under these conditions, ascorbate is oxidized to an L-ascorbyl radical anion. This anion then disproportionates to dehydroascorbic acid and ascorbate.
as §3, with “chelators nitrilotriacetic acid (NTA), 1,2-dimethyl-3-hydroxypyridin-4-one (L1), desferrioxamine B (DFO), (S)-4′-(HO)-DADMDFT, and (S,S)-1,11-Bis[5-(4-carboxyl-4,5-dihydro-1,3-thiazol-2-yl)-2,4-dihydroxyphenyl]-4,8-dioxaundecane (BDU)” for “chelators”, “Nicholson, Free” for “Nicholson (Free”, “20:” for “20,”, “(1994).” for “(1994)).”
The measurement examines the disappearance of ascorbate. It is known that DFO, a hydroxamate chelator that forms a 1:1 complex with Fe(III) at a formation constant of approximately 10^31 M^−1, prevents ascorbate-mediated reduction of Fe(III); it serves as a positive control in the present study. Both NTA and L1 promote ascorbate-mediated reduction of Fe(III) and serve as negative controls.

[6] = Table 1, A734, six-minute reaction, pH 7.4, 1.25 to 15 μM

SMILES | Slope × 10^3 OD units/μM (ABTS radical cation quenching) [1, 6] | Damage (%) ([2]; 650 μmol kg^−1 intracolonically 30 min before 4% acetic acid, mean ± standard deviation) | protection against acetic acid-induced colonic damage (in words) ([2]; intracolonic, image analysis and MPO assay) | MPO activity [3] | Slope × 10^3 OD units/μM (ABTS radical cation quenching) [4] | effect on iron-mediated oxidative DNA damage (in words) (iron-loaded hepatocytes) | effect on ascorbate-mediated reduction of Fe(III) (in words) [5] | effect on ascorbate-mediated reduction of Fe(III) (in words) ([5]; listed as 1,2-dimethyl-3-hydroxypyridin-4-one) | Slope × 10^3 OD units/μM (ABTS radical cation quenching) ([1]; Table 3, A734, 6-min reaction, values marked b are the inventors' unpublished results)
C[C@]1(C(=O)O)CSC(c2ccc(O)cc2O)=N1 [4′-(HO)-DADFT] | −105.6 × 10^3 OD units/μM | 62 ± 10% | did not protect | 64192 ± 30802 mAU min^−1g of colonic tissue^−1 | −106 × 10^3 OD units/μM |  |  |  | 
C[C@]1(C(=O)O)CSC(c2ncccc2O)=N1 [DFT, desferrithiocin] | −0.9 × 10^3 OD units/μM |  |  |  |  | prevented damage |  |  | 
Cc1c(O)c(=O)ccn1C [Compound L1, 1,2-Dimethyl-3-hydroxypyridin-4-one, reference compound] | −52.9 × 10^3 OD units/μM |  |  |  |  | potentiated iron-mediated oxidative DNA damage | promoted the reaction; also recorded: promoted ascorbate-mediated reduction of Fe(III) | increased the rate of iron(III) reduction | −53^b × 10^3 OD units/μM
